According to patent US8637321B2, “Lipidomics approaches for central nervous system disorders” (priority 2005, dated 2014):

How the values were obtained:
[1] = tested on: patients with schizophrenia; test: plasma lipid profiling pre- and post-treatment with antipsychotics; assay type: in vivo, human; as to CE18:3n3 I/D: key: I: increase; D: decrease; as to DG18:3n6 I/D: key: I: increase; D: decrease; as to FA.SFA I/D: key: I: increase; D: decrease; as to FA16:0 I/D: key: I: increase; D: decrease; as to FA18:0 I/D: key: I: increase; D: decrease; as to FA20:4n6 I/D: key: I: increase; D: decrease; as to FA20:5n3 I/D: key: I: increase; D: decrease; as to FA24:0 I/D: key: I: increase; D: decrease; as to LY.n9 I/D: key: I: increase; D: decrease; as to LY18:0 I/D: key: I: increase; D: decrease; as to LY18:1n9 I/D: key: I: increase; D: decrease; as to LY18:3n6 I/D: key: I: increase; D: decrease; as to LY20:1n9 I/D: key: I: increase; D: decrease; as to LY20:2n6 I/D: key: I: increase; D: decrease; as to LY20:3n9 I/D: key: I: increase; D: decrease; as to LY20:4n3 I/D: key: I: increase; D: decrease; as to LYLC I/D: key: I: increase; D: decrease; as to PC.n9 I/D: key: I: increase; D: decrease; as to PC14:0 I/D: key: I: increase; D: decrease; as to PC16:1n7 I/D: key: I: increase; D: decrease; as to PC18:0 I/D: key: I: increase; D: decrease; as to PC18:1n9 I/D: key: I: increase; D: decrease; as to PC18:3n3 I/D: key: I: increase; D: decrease; as to PC18:3n6 I/D: key: I: increase; D: decrease; as to PC20:2n6 I/D: key: I: increase; D: decrease; as to PC20:3n9 I/D: key: I: increase; D: decrease; as to PC20:4n3 I/D: key: I: increase; D: decrease; as to PC20:5n3 I/D: key: I: increase; D: decrease; as to PCLC I/D: key: I: increase; D: decrease; as to PE.n9 I/D: key: I: increase; D: decrease; as to PE18:1n9 I/D: key: I: increase; D: decrease; as to PELC I/D: key: I: increase; D: decrease; as to TG14:0 I/D: key: I: increase; D: decrease; as to TG14:1n5 I/D: key: I: increase; D: decrease; as to TG18:0 I/D: key: I: increase; D: decrease; as to TG18:3n6 I/D: key: I: increase; D: decrease; as to TG20:0 I/D: key: I: increase; D: decrease; as to TG20:3n6 I/D: key: I: increase; D: decrease; as to TG20:4n3 I/D: key: I: increase; D: decrease; as to TG20:5n3 I/D: key: I: increase; D: decrease
Excerpt: (§1) Fifty male and female patients were recruited in two studies for metabolic profiling (Table VI and Table VII for demographics). Subjects ranged in age from 18 to 60 years and met the following inclusion criteria: a) DSM-IV criteria for schizophrenia, schizophreniform disorder, or schizoaffective disorder; b) newly hospitalized for a psychotic exacerbation in the setting of no antipsychotic treatment for at least 3 weeks prior to admission; and c) provided signed informed consent. Patients with psychoses due to psychoactive substance abuse or an underlying medical condition were excluded. Patients who were receiving treatment for diabetes mellitus or hyperlipidemia were also excluded.
The choice and dose of antipsychotic medication was based on the doctor's judgment. […] The treatment duration was 2-3 weeks. […] The mean duration of therapy was about 2 weeks for all 3 drugs in Study II. The drug groups were otherwise generally similar in severity of disease and physical characteristics (Table VI and Table VII). The 2-3 week duration permits the study of acute early effects.
All blood samples were drawn from subjects in the early morning after overnight fasting. Blood was drawn into vacutainer tubes containing sodium heparin, immediately placed on ice, and within 10 minutes, the blood was centrifuged and the plasma was transferred into polypropylene tubes and stored in a −30° C. freezer. All baseline samples were drawn prior to starting antipsychotic treatment in the study. If a patient had received a dose of an antipsychotic during the referral process (e.g., because of agitation when initially seen in a local emergency department), drawing of baseline plasma samples was delayed for 2-3 days. Follow-up samples were drawn after patients had received an average of 2-3 weeks of acute antipsychotic treatment.
A comprehensive assessment of plasma lipid profiles was performed (Lipomics Technologies, West Sacramento, Calif.) according to established methods (Watkins, et al. (2002) J. Lipid Res. 43(11):1809-17). Quantitative measurements of fatty acids in various lipid classes were determined as nmol fatty acid/gram of plasma. Lipid classes included cholesterol esters (CE), free cholesterol (FC), triacylglycerols (TG), diacylglycerols (DG), free fatty acids (FA), lysophosphatidylcholine (LY), phosphatidylcholine (PC), and phosphatidylethanolamine (PE). Lipid metabolites are identified by the lipid class and the fatty acid moiety. In the context of this invention, fatty acids are identified first by the number of carbons in the molecule (e.g., 20), the number of double bonds in the molecule (e.g., 4), and lastly the position of the double bonds (e.g., n6). To illustrate, PC20:4n6 denotes a phosphatidylcholine molecule containing a 20 carbon fatty acid with 4 double bonds at the n6 position.
Significant differences between pre- and post-drug treatment were assessed by paired t-tests. Evaluation of response to drug was assessed by two-way ANOVA. All statistics were done using R with the following functions: t.test, anova, prcomp, and g/m (Team RDC (2005) R: A language and environment for statistical computing. R Foundation for Statistical Computing). Before beginning statistical analyses, change detection was used to determine if observed signals were greater than that which could be expected by chance (noise). The chance distribution of p-values was determined by permuting the outcome groupings (Golub, et al. (1999) Science 286(5439):531-7). Briefly, P values for the appropriate comparison were calculated for each metabolite using a Student's t-test. The metabolites were ranked by p value from smallest to largest. The log of the rank versus the log of the p value for each comparison of interest was plotted and is represented by a colored line. The distribution of p values expected by chance at each rank is indicated by the shaded area. […]

[2] = tested on: patients with schizophrenia; test: Clinical Global Impressions (CGI) Scale psychopathology assessment; assay type: in vivo, human; settings: means and standard error; for CGI Affective, Post / CGI Negative, Post / CGI Positive, Post: CGI Scale 1 to 7, higher scores greater severity; for CGI Change, Post: overall global change rating at follow-up (1-2 responders, 3-6 non-responders)
Excerpt: as §1
The choice and dose of antipsychotic medication was based on the doctor's judgment. […] The treatment duration was 2-3 weeks. […] The 2-3 week duration permits the study of acute early effects.
Psychopathology was assessed on the Clinical Global Impressions (CGI) Scale at baseline and at the time of follow-up blood draws. Scores for the CGI Scale can range from 1 to 7, with higher scores indicating greater severity of illness (Guy (1975) ECDEU Assessment Manual for Psychopharmacology: Publication ADM 76-338. Washington, D.C.: US Department of Health, Education, and Welfare). An overall global change rating was also made at the time of the follow-up blood draw.

[3] = tested on: fatty acid elongation and desaturation (delta 5 desaturase, delta 6 desaturase, elongase); test: pathway analysis: lipid synthesis enzyme activities estimated from fatty acid ratios; assay type: in vivo, human
Protocol: Estimates of lipid synthesis enzyme activities were calculated using the precursor to product ratios for each enzyme. The following ratios were used: 18:3n6/18:2n6 for delta 6 desaturase; 20:3n6/18:3n6 for delta 6 elongase; 20:4n6/20:3n6 for delta 5 desaturase; 22:4n6/20:4n6 for elongase; 24:4n6/22:4n6 for elongase; 24:5n6/24:4n6 for delta 6 desaturase. The absolute numbers for each fatty acid metabolite were used for calculating metabolite changes.
To characterize fatty acid elongation and desaturation processes that might be modified in schizophrenia, various ratios of products to substrates in different fatty acid pathways were determined and are summarized in Table VIII.

[4] = cited from earlier work
[5] = Study I, plasma, post-treatment vs pre-treatment
[6] = Study II, plasma, post-treatment vs pre-treatment
[7] = plasma, mole percentage data, post treatment compared with pretreatment
[8] = plasma, total lipid class data (nmol/g sample), post treatment compared with pretreatment
[9] = Study I, after 2-3 weeks treatment
[10] = Study II, about 2 weeks treatment

Cc1nc2n(c(=O)c1CCN1CCC(c3noc4cc(F)ccc34)CC1)CCCC2 [Risperidone, risperidone]
concentration of arachidonic acid, AA (20:4n6) ([1]; Study I, plasma lipid classes, post-treatment vs pre-treatment): not significantly altered
CE concentration [1, 5]: trend toward an increase
DG concentration [1, 5]: trend toward an increase
FA (free fatty acid) class concentration [1, 5]: decrease
LY class concentration [1, 5]: increase
PC class concentration [1, 5]: increased
PE class concentration [1, 5]: increased
TG concentration [1, 5]: trend toward an increase
concentration of linoleic acid (18:2n6) and its immediate metabolic products 18:3n6 and 20:3n6 [1, 5]: increased
concentration of saturated fatty acids in PE, PC and LY [1, 5]: increased
concentration of total n6 and n3 fatty acids in PE, PC and LY [1, 5]: increased
n7 and n9 free fatty acids [1, 5]: decreases
DG concentration [1, 6]: significantly increased
PC18:3n6 concentration [1, 6]: increased
PC20:2n6 concentration [1, 6]: increased
PC20:3n6 concentration [1, 6]: increased
PC concentration [1, 6]: increased
PE concentration [1, 6]: increased
TG concentration [1, 6]: significantly increased
concentration of PC20:4n6 (arachidonic acid) [1, 6]: did not change
reduction in 18:0 in patients with schizophrenia ([1]; after treatment, FIG. 1): essentially reversed
triacylglycerol and phospholipid content of the plasma ([1]; following treatment): increased
fatty acid synthesis ([1]; inferred from 16:1n7, 18:1n7 and 18:1n9 concentrations): less evident
CE18:3n3 I/D [1, 7]: I
DG18:3n6 I/D [1, 7]: I
FA16:0 I/D [1, 7]: I
FA18:0 I/D [1, 7]: I
FA20:4n6 I/D [1, 7]: I
FA20:5n3 I/D [1, 7]: I
FA24:0 I/D [1, 7]: I
FA.SFA I/D [1, 7]: I
LY18:0 I/D [1, 7]: I
LY18:1n9 I/D [1, 7]: I
LY18:3n6 I/D [1, 7]: I
LY20:1n9 I/D [1, 7]: I
LY20:2n6 I/D [1, 7]: I
LY20:3n9 I/D [1, 7]: I
LY20:4n3 I/D [1, 7]: I
LY.n9 I/D [1, 7]: I
PC14:0 I/D [1, 7]: I
PC16:1n7 I/D [1, 7]: I
PC18:0 I/D [1, 7]: I
PC18:1n9 I/D [1, 7]: I
PC18:3n3 I/D [1, 7]: I
PC18:3n6 I/D [1, 7]: I
PC20:2n6 I/D [1, 7]: I
PC20:3n9 I/D [1, 7]: I
PC20:4n3 I/D [1, 7]: I
PC20:5n3 I/D [1, 7]: I
PC.n9 I/D [1, 7]: I
PE18:1n9 I/D [1, 7]: I
PE.n9 I/D [1, 7]: I
TG14:0 I/D [1, 7]: I
TG14:1n5 I/D [1, 7]: I
TG18:0 I/D [1, 7]: I
TG18:3n6 I/D [1, 7]: I
TG20:0 I/D [1, 7]: I
TG20:3n6 I/D [1, 7]: I
TG20:4n3 I/D [1, 7]: I
TG20:5n3 I/D [1, 7]: I
LYLC I/D [1, 8]: I
PCLC I/D [1, 8]: I
PELC I/D [1, 8]: I
levels of arachidonic and docosahexaenoic acids (20:4n6 and 22:6n3) ([1]; present studies, after treatment): remained essentially the same
CGI Affective, Post [2, 9]: 1.7 ± 0.3
CGI Negative, Post [2, 9]: 2 ± 0.4
CGI Positive, Post [2, 9]: 2.6 ± 0.2
CGI Change, Post ([2]; Study I): 2.9 ± 0.3
CGI Affective, Post [2, 10]: 1.2 ± 0.2
CGI Negative, Post [2, 10]: 1.4 ± 0.2
CGI Positive, Post [2, 10]: 3 ± 0.3
CGI Change, Post ([2]; Study II): 3 ± 0.3
apparent delta 5 desaturase activity ([3]; estimated from 20:4n6/20:3n6 in phosphatidylcholine, FIGS. 5A and 5B): decreased
alterations of fatty acid ratios in patients with schizophrenia ([3]; following treatment): essentially reversed toward normal ranges
effect on serum lipids ([4]; in vivo): discrepant data
weight gain, mean increases during the first year of therapy ([4]; prospective data): 4.4-5.1 lbs
